Results from US20260274839A1, “COMPOUND AND USE THEREOF IN TREATING HUMAN DIHYDROOROTATE DEHYDROGENASE (hDHODH)-MEDIATED DISEASES” (SICHUAN UNIVERSITY, priority 2023, published 2026).

Target: hDHODH (Homo sapiens, UniProt Q02127)
Test: Determination of hDHODH enzymatic inhibitory activity
Format: biochemical
Conditions: compound final concentration 1 μM; purified hDHODH 40 nM; absorbance 600 nm
Procedure: Determination of hDHODH Enzymatic Inhibitory Activity of Compounds
Assay buffer preparation: 100 mM HEPES buffer, 150 mM NaCl, 10% glycerol, and 0.1% Triton X-100 were mixed, adjusted to pH-8.0. A resulting mixture was diluted with Milli-Q water, and then stored at 4° C. A total volume of the enzyme activity detection system was 60 μL. The procedure was performed as follows: 1 μL of the small-molecule solution (with a final concentration of 1 μM) was added to a 96-well enzyme plate. 39 μL of a mixture containing the purified hDHODH protein (with a final concentration of 40 nM), 2,6-dichloroindophenol sodium salt (with a final concentration of 100 μM), coenzyme Q (CoQ, with a final concentration of 20 μM) were added thereto. The plate was protected from light and incubated at 37° C. with gentle shaking for 30 min. After the incubation was completed, 20 μL of dihydroorotate (DHO, with a final concentration of 200 μM) was added to each well. Absorbance was immediately measured using a microplate reader having the following procedure: kinetic assay: wavelength: 600 nm, total duration: 10 min, interval: every 20 s. Controls: negative control: Dimethyl sulfoxide (DMSO) (equal volume) without inhibitor; blank control: ultra-pure water (equal volume) without DHO substrate. All assays were conducted in triplicate. […]

Sequence of hDHODH (Q02127 whole entry): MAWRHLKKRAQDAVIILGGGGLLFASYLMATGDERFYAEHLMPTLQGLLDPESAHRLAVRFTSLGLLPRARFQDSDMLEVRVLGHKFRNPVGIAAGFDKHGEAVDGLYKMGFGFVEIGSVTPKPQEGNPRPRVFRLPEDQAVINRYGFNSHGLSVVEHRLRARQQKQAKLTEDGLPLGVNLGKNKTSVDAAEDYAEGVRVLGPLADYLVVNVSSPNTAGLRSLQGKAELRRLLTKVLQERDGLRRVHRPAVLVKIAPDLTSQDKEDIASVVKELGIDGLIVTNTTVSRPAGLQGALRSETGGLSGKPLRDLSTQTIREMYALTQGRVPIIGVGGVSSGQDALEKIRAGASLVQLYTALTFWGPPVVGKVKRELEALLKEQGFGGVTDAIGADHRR

An inhibition at 1 µM of 48.3% was found for `Fc1ccccc1Cn1nc(-c2ccc(C3CC3)cn2)c2cccnc21` [Compound D11] in this work.
